# Like-named read-outs stand apart in the source and are kept apart here.
# Conditions: amide bond, THF
structure (smiles),measurement,setting,value
CC[C@@H]1CN(CC2CCCC2)[C@@H](C)C(=O)N(C)[C@@H](CC(C)C)C(=O)N[C@@H](C2CCCCC2)C(=O)N[C@@H](CNC(=O)OCc2ccccc2)C(=O)N[C@@H]([C@H](C)OCc2ccccc2)C(=O)N1,"ring closure, yield of all isomers","from CC[C@@H](N)CN(CC1CCCC1)[C@@H](C)C(=O)N(C)[C@@H](CC(C)C)C(=O)N[C@H](C(=O)N[C@@H](CNC(=O)OCc1ccccc1)C(=O)N[C@H](C(=O)O)[C@H](C)OCc1ccccc1)C1CCCCC1, HATU, DIPEA, 1.24 mM, 25.0 °C, 2.5 h",45.7%
CCCC[C@H]1C(=O)N(C)[C@@H](CC(C)C)C(=O)N[C@@H](C2CCCCC2)C(=O)N[C@@H](CNC(=O)OCc2ccccc2)C(=O)N[C@@H](COCCCNC(=O)OC(C)(C)C)C(=O)N[C@H](C)CN1CC1CC1,"ring closure, yield of all isomers","from CCCC[C@@H](C(=O)N(C)[C@@H](CC(C)C)C(=O)N[C@H](C(=O)N[C@@H](CNC(=O)OCc1ccccc1)C(=O)O)C1CCCCC1)N(CC1CC1)C[C@@H](C)NC(=O)[C@@H](N)COCCCNC(=O)OC(C)(C)C, HATU/DIPEA, 1.14 mM, 19.0 h",30%
CCCCCCN1C[C@@H](CCF)NC(=O)[C@H]([C@H](C)OCc2ccccc2)NC(=O)[C@H](CNC(=O)OCc2ccccc2)NC(=O)[C@H](C2CCCCC2)NC(=O)[C@H](CC(C)C)N(C)C(=O)[C@@H]1C,"ring closure, yield of all isomers","from CCCCCCN(C[C@H](N)CCF)[C@@H](C)C(=O)N(C)[C@@H](CC(C)C)C(=O)N[C@H](C(=O)N[C@@H](CNC(=O)OCc1ccccc1)C(=O)N[C@H](C(=O)O)[C@H](C)OCc1ccccc1)C1CCCCC1, HATU/DIPEA, 1.36 mM, 25.0 °C, 20.0 h",43.4%
CCCCCC[C@H]1OC[C@@H](C)NC(=O)[C@H](COC2CC3(C2)CN(C(=O)OC(C)(C)C)C3)NC(=O)[C@H](CNC(=O)OCc2ccccc2)NC(=O)[C@H](C2CCCCCC2)NC(=O)[C@H](CCC)N(C)C(=O)[C@@H]1C,"ring closure, yield of all isomers","from CCCCCC[C@@H](OC[C@@H](C)N)[C@@H](C)C(=O)N(C)[C@@H](CCC)C(=O)N[C@H](C(=O)N[C@@H](CNC(=O)OCc1ccccc1)C(=O)N[C@@H](COC1CC2(C1)CN(C(=O)OC(C)(C)C)C2)C(=O)O)C1CCCCCC1, HATU, DIPEA, 1.35 mM, 25.0 °C, 2.5 h",39%
CCCCCC[C@H]1OC[C@@H](C)NC(=O)[C@H](CNC(=O)OC(C)(C)C)NC(=O)[C@H](CNC(=O)OCc2ccccc2)NC(=O)[C@H](C2CCCCC2)NC(=O)[C@H](CC(C)C)N(C)C(=O)[C@@H]1C,"ring closure, yield of all isomers","from CCCCCC[C@@H](OC[C@@H](C)N)[C@@H](C)C(=O)N(C)[C@@H](CC(C)C)C(=O)N[C@H](C(=O)N[C@@H](CNC(=O)OCc1ccccc1)C(=O)N[C@@H](CNC(=O)OC(C)(C)C)C(=O)O)C1CCCCC1, HATU/DIPEA, 1.08 mM, 25.0 °C, 16.0 h",55%

# — patent US12358951
